Test results published in patent publication US7192929B2, “Peptides effective in the treatment of tumors and other conditions requiring the removal or destruction of cells” (Nymox Corporation, priority 2001, dated 2007).
Ends that are not written are not given here.

Experiments:
[1] = test system: prostate; assay: Intraprostatic infusion in rats, histology of prostate gland; format: in vivo, rat; conditions: 300 μl of 1 mg/mL in PBS pH 7.4 (1.0 mg/kg), sacrificed after 72 hours
Method: Four rats were anesthetized with ether and given NTP peptide #7 by intraprostatic infusion. The injections consisted of 300 μl of NTP peptide #7 1 mg/mL in PBS pH 7.4. (1.0 mg/kg). Controls received injections of PBS alone or no injection. Rats were painlessly sacrificed after 72 hours. Prostate glands were dissected, fixed in 10% buffered formalin for 24 hours, embedded in paraffin, sectioned, and stained with H & E. For each animal the entire prostate gland was embedded and sectioned. All stained sections were examined histologically.
Normal rats were injected in the prostate as in the above Example 2, except they were injected with NTP peptide #17. Rats were painlessly sacrificed after 72 hours and their prostate glands were examined as in Example 2.

[2] = test system: muscle tissue, subcutaneous connective tissue, and dermis; format: in vivo, rat; conditions: for effect on tissue at sites of injection (histopathology): normal rats, skin, subcutaneous and skeletal muscle injection, in saline, 0.1–1 mg/mL, sacrificed at 24 hours
Method: Four normal rats were injected in the skin and subcutaneously, each in four different foci, and in extremity skeletal muscle, each in two different foci, with NTP peptide #7 in saline in quantities of […] at concentrations of 0.1–1 mg/mL delivered from plastic syringes through stainless steel 26 gauge needles.
The individual foci of infiltration were excised, fixed in 10% formalin, embedded in paraffin, and stained and examined by standard histopathological methods.
The controls received saline alone.
Rats were injected in the skin and subcutaneously as in Example 1 above, except they were injected with NTP peptide #14.
Tissues were excised, fixed in 10% formalin, embedded in paraffin, and stained and examined by standard histopathological methods.
The controls were the same as Example 1.

[3] = test system: normal rodent muscle tissue, subcutaneous connective tissue, and dermis; conditions: cited from earlier work
[4] = test system: glioma and neuroblastoma cell cultures; conditions: cited from earlier work
[5] = test system: human and non-human origin tumors, including mammary carcinoma, skin carcinoma and papilloma, colon carcinoma, glioma of brain; conditions: variety of human and non-human origin tumors in rodent models; cited from earlier work

Substance: LSLPSSWDYG [NTP peptide #7]
- effect on prostate tissue at sites of injection (histology) [1]: necrosis of tissue at the injection sites with loss of glandular epithelium, flattening and atrophy
- effect on tissue at sites of injection (histopathology) [2]: necrosis of tissue at the injection sites
- spread of necrosis beyond the site of injection ([2]; rat, in vivo, sc): did not appear to spread far beyond the site of injection

Substance: WDYRRFIFNFL [NTP peptide #14, …; AD7c-NTP p241–245 + AD7c-NTP p197–202]
- effect on tissue at sites of injection (histopathology) [2]: cell death and necrosis of tissue at the injection sites

Substance: AD7c-NTP protein: ˜41 kD membrane associated phosphoprotein, a neural thread protein; sequence in FIG. 1
- causing cell death in vivo in normal tissue [3]: effective agent for causing cell death
- causing cell death in vitro [4]: effective agent for causing cell death
- causing cell death in vivo in tumors [5]: effective agent for causing cell death

Substance: PASASPVAGITGM [NTP peptide #17, …; AD7c-NTP p31–43]
- effect on prostate tissue at sites of injection (histology) [1]: significant cell loss and atrophy in the prostate
